Residues, ends and D or L forms follow the SMILES beside them.
What was measured:
Assay in all cases: FP saturation binding assay
ABL2 SH2 domain = molecular target: T1, ABL2 SH2 domain (Homo sapiens, UniProt P42684); details: protein ABL2, high-confidence ErbB interactions, mean of replicate hits
T1 construct: 93 SH2 and 2 PTB domain-containing constructs; 6X His; thioredoxin; made in house; host or cells: E. coli BL21(DE3)pLysS
Method in brief: (§1)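 Rhodamine-labeled peptides (10 nM final) were titrated with 12 SH2 domain concentrations (0.002–10 µM) in 20 mM HEPES, 100 mM KCl, 0.1% Tween-20, 5 mM DTT, pH 7.8. After 20 min at room temperature in the dark, FP (ex 530/em 555 nm) was read. KDs came from nonlinear least-squares fits.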

SRC SH2 domain = molecular target: T2, SRC SH2 domain (Homo sapiens, UniProt P12931); details: protein SRC; high-confidence ErbB interactions; mean of replicate hits
T2 construct: between the c-Src SH2 domain and ErbB1 in our FP assay; 6X His; thioredoxin; made in house; host or cells: E. coli BL21(DE3)pLysS
Method in brief: as §1

PIK3R1-C SH2 domain = molecular target: T3, PIK3R1-C SH2 domain (Homo sapiens, UniProt P27986); details: protein PIK3R1-C, high-confidence ErbB interactions, mean of replicate hits
T3 construct: 6X His; thioredoxin; made in house; host or cells: E. coli BL21(DE3)pLysS
Method in brief: as §1

FGR SH2 domain = molecular target: T4, FGR SH2 domain (Homo sapiens, UniProt P09769); details: Protein FGR, high-confidence ErbB interactions, mean over replicate hits
T4 construct: 93 SH2 and 2 PTB domain-containing constructs; 6X His; thioredoxin; made in house; host or cells: E. coli BL21(DE3)pLysS
Method in brief: as §1

SH2D2A SH2 domain = SH2D2A SH2 domain (Homo sapiens, UniProt Q9NP31)
PIK3R2-N SH2 domain = PIK3R2-N SH2 domain (Homo sapiens, UniProt O00459)
HCK SH2 domain = molecular target: T5, HCK SH2 domain (Homo sapiens, UniProt P08631); details: protein HCK, high-confidence ErbB interactions, mean of replicate hits
T5 construct: 93 SH2 and 2 PTB domain-containing constructs; 6X His; thioredoxin; made in house; host or cells: E. coli BL21(DE3)pLysS
Method in brief: as §1

T1 sequence (P42684 173-263 limits assumed): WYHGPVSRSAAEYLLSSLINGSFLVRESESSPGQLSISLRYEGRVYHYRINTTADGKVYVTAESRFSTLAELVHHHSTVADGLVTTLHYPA
Sequence of PIK3R2-N SH2 domain (O00459 330-425 limits assumed): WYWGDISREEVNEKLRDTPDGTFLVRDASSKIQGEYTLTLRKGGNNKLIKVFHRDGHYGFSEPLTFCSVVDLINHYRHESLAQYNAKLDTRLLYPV
T3 sequence (P27986 624-718 limits assumed): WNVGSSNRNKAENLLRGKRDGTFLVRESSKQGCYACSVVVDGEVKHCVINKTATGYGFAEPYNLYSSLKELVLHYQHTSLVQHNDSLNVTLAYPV
T4 sequence (P09769 144-241 limits assumed): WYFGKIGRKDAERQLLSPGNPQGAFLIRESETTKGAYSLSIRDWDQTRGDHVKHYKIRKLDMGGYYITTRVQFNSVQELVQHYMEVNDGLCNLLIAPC
T2 sequence (P12931 151-248 limits assumed): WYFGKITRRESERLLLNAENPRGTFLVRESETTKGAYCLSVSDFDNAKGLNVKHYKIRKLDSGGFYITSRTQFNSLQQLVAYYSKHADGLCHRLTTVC
T5 sequence (P08631 144-241 limits assumed): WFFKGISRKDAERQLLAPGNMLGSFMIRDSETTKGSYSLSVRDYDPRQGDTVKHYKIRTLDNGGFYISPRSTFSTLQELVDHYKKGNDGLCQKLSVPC
Sequence of SH2D2A SH2 domain (Q9NP31 95-186 limits assumed): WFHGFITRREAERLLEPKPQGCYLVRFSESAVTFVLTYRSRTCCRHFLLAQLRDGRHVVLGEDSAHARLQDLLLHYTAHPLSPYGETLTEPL

## CSCC[C@H](NC(=O)[C@H](Cc1ccc(OP(=O)(O)O)cc1)NC(=O)CNC(=O)[C@H](CCC(=O)O)NC(=O)[C@H](CCC(=O)O)NC(=O)[C@H](CC(=O)O)NC(=O)[C@H](CC(C)C)NC(=O)[C@H](CCC(=O)O)NC(=O)CNC(=O)[C@H](CCCNC(=N)N)NC(=O)[C@@H]1CCCN1)C(=O)N[C@H](C(=O)N1CCC[C@H]1C(=O)N[C@@H](CCSC)C(=O)N[C@@H](CCCNC(=N)N)C(=O)N[C@@H](CC(=O)O)C(=O)N[C@@H](CCCCN)C(=O)N[C@@H](CC(=O)O)C(=O)O)[C@@H](C)O [ErbB4 1150 18-mer] (HELM PEPTIDE1{P.R.G.E.L.D.E.E.G.[O=C([C@H](Cc1ccc(OP(=O)(O)O)cc1)N[*:1])[*:2]].M.T.P.M.R.D.K.D}$$$$V2.0)
ABL2 SH2 domain
  Kd: 8.25 µM

## CC(C)C[C@H](NC(=O)[C@H](Cc1ccc(OP(=O)(O)O)cc1)NC(=O)[C@H](CC(C)C)NC(=O)[C@@H]1CCCN1C(=O)[C@H](CCC(=O)O)NC(=O)[C@H](CC(N)=O)NC(=O)[C@@H](NC(=O)[C@H](Cc1ccc(O)cc1)NC(=O)[C@H](CCC(=O)O)NC(=O)[C@H](CC(=O)O)NC(=O)[C@@H](N)CCC(=O)O)C(C)C)C(=O)N[C@@H](CC(N)=O)C(=O)N[C@H](C(=O)N[C@@H](Cc1ccccc1)C(=O)N[C@@H](C)C(=O)N[C@@H](CC(N)=O)C(=O)N[C@H](C(=O)N[C@@H](CC(=O)O)C(=O)O)[C@@H](C)O)[C@@H](C)O [ErbB4 1208 18-mer] (HELM PEPTIDE1{E.D.E.Y.V.N.E.P.L.[O=C([C@H](Cc1ccc(OP(=O)(O)O)cc1)N[*:1])[*:2]].L.N.T.F.A.N.T.D}$$$$V2.0)
SRC SH2 domain
  Kd: 5.84 µM

## CSCC[C@H](NC(=O)[C@H](CCC(=O)O)NC(=O)[C@H](CCC(=O)O)NC(=O)[C@H](Cc1ccc(OP(=O)(O)O)cc1)NC(=O)CNC(=O)[C@H](CCC(N)=O)NC(=O)[C@H](CCC(=O)O)NC(=O)[C@@H](N)CO)C(=O)N[C@@H](CCCNC(=N)N)C(=O)N[C@@H](C)C(=O)N[C@@H](Cc1ccccc1)C(=O)N[C@@H](CCC(N)=O)C(=O)N[C@@H](CC(=O)O)C(=O)O [ErbB3 1289 13-mer] (HELM PEPTIDE1{S.E.Q.G.[O=C([C@H](Cc1ccc(OP(=O)(O)O)cc1)N[*:1])[*:2]].E.E.M.R.A.F.Q.D}$$$$V2.0)
PIK3R1-C SH2 domain
  Kd: 0.2 µM

## CC(C)C[C@H](NC(=O)[C@H](CC(N)=O)NC(=O)[C@@H](N)CC(=O)O)C(=O)N[C@@H](Cc1ccc(O)cc1)C(=O)N[C@@H](Cc1ccc(OP(=O)(O)O)cc1)C(=O)N[C@@H](Cc1c[nH]c2ccccc12)C(=O)N[C@@H](CC(=O)O)C(=O)N[C@@H](CCC(N)=O)C(=O)N[C@@H](CC(=O)O)C(=O)N1CCC[C@H]1C(=O)N1CCC[C@H]1C(=O)N[C@@H](CCC(=O)O)C(=O)N[C@@H](CC(=O)O)C(=O)O [ErbB2 1222 13-mer] (HELM PEPTIDE1{D.N.L.Y.[O=C([C@H](Cc1ccc(OP(=O)(O)O)cc1)N[*:1])[*:2]].W.D.Q.D.P.P.E.D}$$$$V2.0)
FGR SH2 domain
  Kd: 8.34 µM

## CC(C)[C@H](NC(=O)[C@H](CC(=O)O)NC(=O)[C@@H]1CCCN1C(=O)[C@H](CCC(N)=O)NC(=O)[C@H](CC(N)=O)NC(=O)[C@@H](NC(=O)[C@H](Cc1ccc(OP(=O)(O)O)cc1)NC(=O)[C@H](CCC(=O)O)NC(=O)[C@@H]1CCCN1C(=O)[C@H](CCC(N)=O)NC(=O)[C@@H]1CCCN1)C(C)C)C(=O)N[C@@H](CCCNC(=N)N)C(=O)N[C@@H](CC(=O)O)C(=O)O [ErbB2 1139 13-mer] (HELM PEPTIDE1{P.Q.P.E.[O=C([C@H](Cc1ccc(OP(=O)(O)O)cc1)N[*:1])[*:2]].V.N.Q.P.D.V.R.D}$$$$V2.0)
SH2D2A SH2 domain
  Kd: 4.8 µM
PIK3R2-N SH2 domain
  Kd: 2.2 µM

## CSCC[C@H](NC(=O)[C@H](Cc1ccc(OP(=O)(O)O)cc1)NC(=O)[C@H](CCC(=O)O)NC(=O)[C@H](Cc1ccc(O)cc1)NC(=O)CNC(=O)[C@@H](N)CC(C)C)C(=O)N[C@@H](CC(=O)O)C(=O)N[C@H](C(=O)NCC(=O)N[C@@H](CO)C(=O)N[C@@H](CC(=O)O)C(=O)N[C@@H](CC(C)C)C(=O)N[C@@H](CC(=O)O)C(=O)O)C(C)C [ErbB3 1224 13-mer] (HELM PEPTIDE1{L.G.Y.E.[O=C([C@H](Cc1ccc(OP(=O)(O)O)cc1)N[*:1])[*:2]].M.D.V.G.S.D.L.D}$$$$V2.0)
HCK SH2 domain
  Kd: 10.9 µM

Reference: publication PMC3433420 (PLoS ONE, 2012)
